Laboratory results from patent US20250388589A1, “TRICYCLIC HETEROCYCLIC DERIVATIVES, COMPOSITIONS AND USES THEREOF” (Danatlas Pharmaceuticals Co., Ltd., priority 2022, published 2025).

How the values were obtained:
[1] = biological target: hPARG (C-terminal His6-tag) (Homo sapiens (Human), UniProt Q86W56); test: PARG Enzymatic Activity Assay (HTRF); format: biochemical; conditions: hPARG 65 pM final, biotinylated-NAD ribosylated PARP1 8 nM final
Outline: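 Readout is time-resolved fluorescence at 620 and 665 nm after 60 min RT detection with streptavidin-Eu cryptate and anti-6HIS-XL665; IC50 by 4-parameter fit, 1% DMSO and no-enzyme controls. Reaction: 8 nM final ribosylated PARP1 substrate for 10 min RT, following 60 min RT enzyme (65 pM)–compound preincubation in Tris pH 7.4 buffer with EDTA, DTT, KCl.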

Kuramochi cell line = test: Cell Viability Assay (Cell Titer-Glo, 7 days); format: cell-based; conditions: 168 h, Kuramochi cells, 7 days incubation, read-out: PARG Cell viability (IC50)
Outline: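 IC50 from a four-parameter fit of CellTiter-Glo luminescence, scaled between DMSO-treated (high) and medium-only (low) wells. Kuramochi cells (400/well, RPMI/10% FBS) exposed 7 days at 37 °C to 9 concentrations, 3-fold steps, in duplicate.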

hPARG (C-terminal His6-tag), sequence (Q86W56 whole entry): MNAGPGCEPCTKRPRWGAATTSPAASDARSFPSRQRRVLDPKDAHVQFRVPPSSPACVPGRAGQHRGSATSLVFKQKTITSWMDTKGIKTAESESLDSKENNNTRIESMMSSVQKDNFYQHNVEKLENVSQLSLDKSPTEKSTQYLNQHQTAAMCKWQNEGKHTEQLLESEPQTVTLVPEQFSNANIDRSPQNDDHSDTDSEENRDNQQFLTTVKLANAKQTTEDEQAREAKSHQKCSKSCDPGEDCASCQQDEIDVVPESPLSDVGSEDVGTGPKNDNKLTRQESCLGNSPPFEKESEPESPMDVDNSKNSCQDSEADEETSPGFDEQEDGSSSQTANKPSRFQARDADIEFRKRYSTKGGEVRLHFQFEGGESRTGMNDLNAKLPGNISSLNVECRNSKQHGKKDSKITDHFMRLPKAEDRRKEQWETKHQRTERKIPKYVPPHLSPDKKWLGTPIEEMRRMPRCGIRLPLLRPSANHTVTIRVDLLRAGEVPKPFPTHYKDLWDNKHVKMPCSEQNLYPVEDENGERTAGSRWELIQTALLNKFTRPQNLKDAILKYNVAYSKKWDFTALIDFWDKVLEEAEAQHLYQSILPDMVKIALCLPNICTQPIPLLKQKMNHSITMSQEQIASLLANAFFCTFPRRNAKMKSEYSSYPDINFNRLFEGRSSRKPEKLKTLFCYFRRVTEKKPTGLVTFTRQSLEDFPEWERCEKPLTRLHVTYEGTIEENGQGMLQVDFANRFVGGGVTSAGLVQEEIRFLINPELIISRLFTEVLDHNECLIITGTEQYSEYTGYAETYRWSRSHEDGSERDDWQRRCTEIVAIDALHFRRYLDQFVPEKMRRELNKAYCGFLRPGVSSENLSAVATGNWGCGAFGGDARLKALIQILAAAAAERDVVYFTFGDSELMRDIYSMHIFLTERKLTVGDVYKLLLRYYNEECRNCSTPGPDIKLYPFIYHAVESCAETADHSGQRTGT

Row | SMILES | IC50 [1] [nM] | IC50 (Kuramochi cell line) [nM]
1 | N#CC1(NS(=O)(=O)c2ccc3c4c(N5CC[C@@H](O)C5)ncnc4n(-c4nnc(C(F)F)s4)c3c2)CC1 [Example 54, (R)-N-(1-Cyanocyclopropyl)-9-(5-(difluoromethyl)-1,3,4-thiadiazol-2-yl)-4-(3-hydroxypyrrolidin-1-yl)-9H-pyrimido[4,5-b]indole-7-sulfonamide] | 100 to 1000 | 100 to 1000
2 | COCCN(C)C(=O)N1CCC(c2ncnc3c2c2ccc(S(=O)(=O)NC4(C#N)CC4)cc2n3-c2nnc(C(F)F)s2)CC1 [Example 144, 4-(7-(N-(1-cyanocyclo-propyl)sulfamoyl)-9-(5-(difluoromethyl)-1,3,4-thiadiazol-2-yl)-9H-pyrimido[4,5-b]indol-4-yl)-N-(2-methoxyethyl)-N-methylpiperidine-1-carboxamide] | < 100 | < 100
3 | N#CC1(NS(=O)(=O)c2ccc3c4c(N5CCN(c6ncccn6)CC5)ncnc4n(-c4nnc(C(F)F)s4)c3c2)CC1 [Example 18, N-(1-Cyanocyclopropyl)-9-(5-(difluoromethyl)-1,3,4-thiadiazol-2-yl)-4-(4-(pyrimidin-2-yl)piperazin-1-yl)-9H-pyrimido[4,5-b]indole-7-sulfonamide] | 100 to 1000 | 100 to 1000
4 | CCN1CCN(c2ncnc3c2c2ccc(S(=O)(=O)NC4(C#N)CC4)cc2n3-c2nnc(C(F)F)s2)CC1=O [Example 155, N-(1-cyanocyclopropyl)-9-(5-(difluoromethyl)-1,3,4-thiadiazol-2-yl)-4-(4-ethyl-3-oxopiperazin-1-yl)-9H-pyrimido[4,5-b]indole-7-sulfonamide] | < 100 | < 100
5 | N#CC1(NS(=O)(=O)c2ccc3c4c(C5CCN(C(=O)[C@H]6CCOC6)CC5)ncnc4n(-c4nnc(C(F)F)s4)c3c2)CC1 [Example 115, (S)-N-(1-cyanocyclopropyl)-9-(5-(difluoromethyl)-1,3,4-thiadiazol-2-yl)-4-(1-(tetrahydrofuran-3-carbonyl)piperidin-4-yl)-9H-pyrimido[4,5-b]indole-7-sulfonamide] | < 100 | < 100
6 | CN1CCC(C(=O)N2CCN(c3ncnc4c3c3ccc(S(=O)(=O)NC5(C#N)CC5)cc3n4-c3nnc(C(F)F)s3)CC2)C1 (centres unmarked) [Example 67, N-(1-Cyanocyclopropyl)-9-(5-(difluoromethyl)-1,3,4-thiadiazol-2-yl)-4-(4-(1-methylpyrrolidine-3-carbonyl)piperazin-1-yl)-9H-pyrimido[4,5-b]indole-7-sulfonamide] | < 100 | 100 to 1000
7 | N#CC1(NS(=O)(=O)c2ccc3c4c(C5CCN(C(=O)[C@@H]6CCCN6)CC5)ncnc4n(-c4nnc(C(F)F)s4)c3c2)CC1 [Example 124, (S)—N-(1-Cyanocyclopropyl)-9-(5-(difluoromethyl)-1,3,4-thiadiazol-2-yl)-4-(1-prolylpiperidin-4-yl)-9H-pyrimido[4,5-b]indole-7-sulfonamide] | < 100 | 100 to 1000
8 | N#CC1(NS(=O)(=O)c2ccc3c4c(N5CCN(C(=O)C6CCOCC6)CC5)ncnc4n(-c4nnc(C(F)F)s4)c3c2)CC1 [Example 12, N-(1-Cyanocyclopropyl)-9-(5-(difluoromethyl)-1,3,4-thiadiazol-2-yl)-4-(4-(tetrahydro-2H-pyran-4-carbonyl)piperazin-1-yl)-9H-pyrimido[4,5-b]indole-7-sulfonamide] | < 100 | < 100
9 | C[C@H]1CN(c2ncnc3c2c2ccc(S(=O)(=O)NC4(C#N)CC4)cc2n3-c2nnc(C(F)F)s2)CCN1CC1CC1 [Example 164, (S)-N-(1-cyanocyclopropyl)-4-(4-(cyclopropylmethyl)-3-methylpiperazin-1-yl)-9-(5-(difluoromethyl)-1,3,4-thiadiazol-2-yl)-9H-pyrimido[4,5-b]indole-7-sulfonamide] | < 100 | < 100
10 | CC(C)C(=O)N1C2CCC1CN(c1ncnc3c1c1ccc(S(=O)(=O)NC4(C#N)CC4)cc1n3-c1nnc(C(F)F)s1)C2 [Example 24, N-(1-Cyanocyclopropyl)-9-[5-(difluoromethyl)-1,3,4-thiadiazol-2-yl]-4-[8-(2-methylpropanoyl)-3,8-diazabicyclo[3.2.1]octan-3-yl]pyrimido[4,5-b]indole-7-sulfonamide] | < 100 | 100 to 1000

The next lines start with results.

Row | IC50 [1] [nM] | SMILES | IC50 (Kuramochi cell line) [nM]
11 | < 100 | N#CC1(NS(=O)(=O)c2ccc3c4c(N5CCN6C(=O)OC[C@H]6C5)ncnc4n(-c4nnc(C(F)F)s4)c3c2)CC1 [Example 167, (R)-N-(1-cyanocyclopropyl)-9-(5-(difluoromethyl)-1,3,4-thiadiazol-2-yl)-4-(3-oxotetrahydro-3H-oxazolo[3,4-a]pyrazin-7(1H)-yl)-9H-pyrimido[4,5-b]indole-7-sulfonamide] | < 100
12 | < 100 | CC(C)(C)C(=O)N1CCN(c2ncnc3c2c2ccc(S(=O)(=O)NC4(C#N)CC4)cc2n3-c2nnc(C(F)F)s2)CC1 [Example 3, N-(1-Cyanocyclopropyl)-9-(5-(difluoromethyl)-1,3,4-thiadiazol-2-yl)-4-(4-pivaloylpiperazin-1-yl)-9H-pyrimido[4,5-b]indole-7-sulfonamide] | < 100
13 | < 100 | CC(C)C(=O)N1CCCN(c2ncnc3c2c2ccc(S(=O)(=O)NC4(C#N)CC4)cc2n3-c2nnc(C(F)F)s2)CC1 [Example 25, N-(1-Cyanocyclopropyl)-9-(5-(difluoromethyl)-1,3,4-thiadiazol-2-yl)-4-(4-isobutyryl-1,4-diazepan-1-yl)-9H-pyrimido[4,5-b]indole-7-sulfonamide] | 100 to 1000
14 | < 100 | CC(C)C(=O)N1CCN(c2ncnc3c2c2ccc(S(=O)(=O)NC4(C#N)CC4)cc2n3-c2nnc(C(F)F)s2)C[C@@H]1C [Example 61, (S)-N-(1-cyanocyclopropyl)-9-(5-(difluoromethyl)-1,3,4-thiadiazol-2-yl)-4-(4-isobutyryl-3-methylpiperazin-1-yl)-9H-pyrimido[4,5-b]indole-7-sulfonamide] | < 100
15 | < 100 | CC1(NS(=O)(=O)c2ccc3c4c(C5CCN(C(=O)C(C)(C)O)CC5)ncnc4n(-c4nnc(C(F)F)s4)c3c2)CC1 [Example 94, 9-(5-(Difluoromethyl)-1,3,4-thiadiazol-2-yl)-4-(1-(2-hydroxy-2-methylpropanoyl)piperidin-4-yl)-N-(1-methylcyclopropyl)-9H-pyrimido[4,5-b]indole-7-sulfonamide] | < 100
16 | < 100 | CC1(C(=O)N2CC3CN(c4ncnc5c4c4ccc(S(=O)(=O)NC6(C#N)CC6)cc4n5-c4nnc(C(F)F)s4)CC3C2)CC1 (centres unmarked) [Example 36, N-(1-Cyanocyclopropyl)-9-(5-(difluoromethyl)-1,3,4-thiadiazol-2-yl)-4-(5-(1-methylcyclopropane-1-carbonyl)hexahydropyrrolo[3,4-c]pyrrol-2(1H)-yl)-9H-pyrimido[4,5-b]indole-7-sulfonamide] | 100 to 1000
17 | < 100 | N#CC1(NS(=O)(=O)c2ccc3c4c(C5CCN(C(=O)C6COC6)CC5)ncnc4n(-c4nnc(C(F)F)s4)c3c2)CC1 [Example 113, N-(1-cyanocyclopropyl)-9-(5-(difluoromethyl)-1,3,4-thiadiazol-2-yl)-4-(1-(oxetane-3-carbonyl)piperidin-4-yl)-9H-pyrimido[4,5-b]indole-7-sulfonamide] | < 100
18 | < 100 | CN(C)[C@H]1CCN(C(=O)N2CCC(c3ncnc4c3c3ccc(S(=O)(=O)NC5(C#N)CC5)cc3n4-c3nnc(C(F)F)s3)CC2)C1 [Example 136, (S)-N-(1-Cyanocyclo-propyl)-9-(5-(difluoromethyl)-1,3,4-thiadiazol-2-yl)-4-(1-(3-(dimethylamino)pyrrolidine-1-carbonyl)piperidin-4-yl)-9H-pyrimido [4,5-b]indole-7-sulfonamide] | < 100
19 | < 100 | N#CC1(NS(=O)(=O)c2ccc3c4c(C5CCN(C(=O)[C@@H]6CCCO6)CC5)ncnc4n(-c4nnc(C(F)F)s4)c3c2)CC1 [Example 111, (S)-N-(1-cyanocyclopropyl)-9-(5-(difluoromethyl)-1,3,4-thiadiazol-2-yl)-4-(1-(tetrahydrofuran-2-carbonyl)piperidin-4-yl)-9H-pyrimido[4,5-b]indole-7-sulfonamide] | < 100
20 | < 100 | N#CC1(NS(=O)(=O)c2ccc3c4c(N5CCN(CC6CC6)C(=O)C5)ncnc4n(-c4nnc(C(F)F)s4)c3c2)CC1 [Example 40, N-(1-Cyanocyclopropyl)-4-(4-(cyclopropylmethyl)-3-oxopiperazin-1-yl)-9-(5-(difluoromethyl)-1,3,4-thiadiazol-2-yl)-9H-pyrimido[4,5-b]indole-7-sulfonamide] | < 100
21 | < 100 | N#CC1(NS(=O)(=O)c2ccc3c4c(N5CCN6CCOC[C@@H]6C5)ncnc4n(-c4nnc(C(F)F)s4)c3c2)CC1 [Example 162, (S)-N-(1-cyanocyclopropyl)-9-(5-(difluoromethyl)-1,3,4-thiadiazol-2-yl)-4-(hexahydropyrazino[2,1-c][1,4]oxazin-8(1H)-yl)-9H-pyrimido[4,5-b]indole-7-sulfonamide] | < 100
22 | < 100 | COCC(=O)N1CCC(c2ncnc3c2c2ccc(S(=O)(=O)NC4(C#N)CC4)cc2n3-c2nnc(C(F)F)s2)CC1 [Example 117, N-(1-cyanocyclopropyl)-9-(5-(difluoromethyl)-1,3,4-thiadiazol-2-yl)-4-(1-(2-methoxyacetyl)piperidin-4-yl)-9H-pyrimido[4,5-b]indole-7-sulfonamide] | < 100
